Laboratory results reported in ChEMBL document CHEMBL1144499, “Complanadines C and D, new dimeric alkaloids from Lycopodium complanatum” (Bioorg Med Chem, 2007).
Values after ≈ are worked out from the molar mass of the structure shown. Active and inactive are the calls of the source. No cut-off for these calls is given here.

How the values were obtained:
[1] = system: Cryptococcus neoformans; assay: Antimicrobial activity against Cryptococcus neoformans; format: functional
[2] = system: Aspergillus niger; assay: Antimicrobial activity against Aspergillus niger; format: functional
[3] = system: L1210; assay: Cytotoxicity against mouse L1210 cells; format: cell-based
[4] = system: 1321-N1; assay: Enhancement of NGF mRNA expression in human 1321N1 cells; format: functional, cell-based

MIC [1]: 0.26 µg/mL (≈ 0.534 µM)
MIC [2]: 4.16 µg/mL (≈ 8.55 µM)
SMILES: C[C@@H]1C[C@H]2CC3=C(CC[C@H](c4cnc5c(c4)[C@@]46C[C@H](C)C[C@@H](C5)[C@H]4CCCN6)N3)[C@]3(C1)NCCC[C@H]23 [COMPLANADINE D]
IC50 [3]: 7 µg/mL (≈ 14.4 µM)
Activity [4]: Active
